Reference: ChEMBL document CHEMBL1135996, “Synthesis and biological evaluation of novel macrocyclic ligands with pendent donor groups as potential yttrium chelators for radioimmunotherapy with improved complex formation kinetics” (J Med Chem, 2002)

Tests used:
Type in all cases: ADME, organism-based
Conditions in all cases: in vivo
Mus musculus [1] = species on record: Mus musculus; experiment: Percent of blood clearance in bone of mice at 0.5 h
Mus musculus [2] = species on record: Mus musculus; experiment: Percent of radioactivity that accumulated in kidney of mice at 24 h
Mus musculus [3] = species on record: Mus musculus; experiment: Percent of blood clearance in bone of mice at 24 hr

1,4,7,10tetraaza-Cyclododecane-1,4,7,10-tetracarboxylic acid with yttrium
ID/g (Mus musculus [1]): 1.47%
ID/g (Mus musculus [2]): 0.54%
ID/g (Mus musculus [3]): 0.05%
